# Results as given in patent publication US12545674B2, “Crystal of trifluoromethyl/chloro disubstituted sulfonamide selective BCL-2 inhibitor” (priority 2020, dated 2026).
# Columns and labels:
# [1] = In vitro stability in liver microsomes, human; format: in vitro ADME; settings: 1 μM
# Experimental: (§1) 300 μL of the final incubation system contains 30 μL of liver microsomes (protein concentration: 5 mg/mL), 30 μL of NADPH+MgCl2, 3 μL of the test compound (in acetonitrile), and 237 μL of PBS buffer (pH 7.4). Among them, the proportion of the organic solvent (acetonitrile) was 1% (volume ratio). Samples were prepared in duplicate for each species (mouse, rat and human), with 0.3 mL each. […] 50 μL of the mixture was taken at 0 min, 15 min, 30 min and 60 min, and 300 μL of glacial acetonitrile containing an internal standard was added to terminate the reaction. 50 μL of the incubated sample was added with 300 μL of glacial acetonitrile containing an internal standard (20 ng/mL diazepam) for precipitation. The mixture was vortexed for 5 min, and centrifuged (13,000 rpm, 20° C.) for 10 min 70 μL of supernatant was taken and 70 μL of ultrapure water was added for dilution and homogeneous mixing. 1 μL of sample was injected for analysis.
# [2] = In vitro stability in liver microsomes, rat; format: in vitro ADME; settings: 1 μM
# Experimental: as §1
# [3] = In vitro stability in liver microsomes, mouse; format: in vitro ADME; settings: 1 μM
# Experimental: as §1
# [4] = test system: human B-cell leukemia RS4;11 subcutaneous xenograft; assay: Pharmacodynamics in human B-cell leukemia RS4;11 subcutaneous xenograft model; format: in vivo, NOD/SCID mice; settings: 25 mg/kg p.o. single dose, Day 17 after end of treatment
# Description: NOD/SCID mice, female, aged 9-10 weeks (ages upon tumor cell grafting), body weight of 16.3-22.0 g. The mice were purchased from Beijing AniKeeper Biotech Co., Ltd. (production license number: SCXK (Jing) 2017-0006; animal certification number: 11402400013155). Breeding environment: SPF grade. Mice were grafted subcutaneously on the right anterior dorsal side with 1×10^7 RS4;11 cells. The day of grafting was defined as day 0. When the mean tumor volume was 240 mm^3, the mice were randomized by the tumor size. The administration was performed as per Table 16 below.
# Clinical symptoms observed during the study were recorded in the raw data. Calculation formula for tumor volume: Tumor volume (mm^3)=½×(a×b^2) (where a represents long diameter and b represents short diameter). The data were collected using StudyDirector™ software (version No. 3.1.399.19, supplier: Studylog System, Inc., S.San Francisco, CA, USA) in the study, including measurements of the long and short diameters of the tumor and body weights of the animals. The raw data obtained from a balance and a vernier caliper were directly input into the software, and any change in the data was recorded. Relative tumor proliferation rate (T/C %) refers to the percentage of the relative tumor volume or tumor weight of the treatment and control groups at a certain time point. The calculation formula is as follows: T/C %=TRTV/CRTV×100%(TRTV:mean RTV for treatment group;CRTV:mean RTV for vehicle control group;RTV=Vt/V0, where V0 denotes the tumor volume of the animal upon grouping, and Vt denotes the tumor volume of the animal after treatment).
# (T and C are the relative tumor volume (RTV) or tumor weight (TW) at a particular time point for the treatment and control groups, respectively).
# All experimental results were expressed as mean tumor volume±SEM (standard error of mean). The relative tumor volume of the treatment group was compared with that of the control group for any significant difference by the independent sample T test. All the data were analyzed using SPSS 18.0. p<0.05 was defined as a significant difference.
# [5] = test system: human platelet caspase-3 activity; assay: Human platelet toxicity study (caspase-3 activity assay); format: cell-based; settings: human platelets, compound concentration 1 μM, 90 min; normalized, reference ABT-199
# Experimental: 10 mL of human whole blood was collected using a heparin sodium anticoagulation tube, mixed well by turning upside down, and centrifuged at 90 g for 10 min. The supernatant was collected and centrifuged at 1950 g for 10 min. The supernatant was discarded, and the residue was resuspended in 4 mL of PBS, and centrifuged at 1190 g for 5 min. The procedure was repeated once. The supernatant was discarded, and the platelets were resuspended in PBS and adjusted to a density of 2-3×10^8 cells/mL. Cells were seeded into a 96-well plate at a density of […] and at 100 μL/well. 50 μL of control buffer was added to each negative control well, and 50 μL of compound at a corresponding concentration was added to each compound well to adjust the final concentration of the compound to 2.5 μM or 1 μM, followed by incubation in an incubator at 37° C. for 90 min. The liquids in the 96-well plate were transferred to 1.5 mL centrifuge tubes. […] The resulting mixture was mixed gently, and the plate was read by a PE Envision multi-functional microplate reader (excitation: 360 nm, emission: 460 nm) once every 10 min for 6 times. Caspase-3 activity was determined based on the intensity of the released AMC fluorescence, that is the slope of the fitted line to which each well corresponds represents Caspase activity (all data were normalized and the reference was ABT-199).
compound,measurement,setting,value
CC1(C)CCC(CN2CCN(c3ccc(C(=O)NS(=O)(=O)c4ccc(NC[C@H]5COCCO5)c([N+](=O)[O-])c4)c(Oc4cnc5[nH]ccc5c4)c3)CC2)=C(c2ccc(C(F)(F)F)cc2Cl)C1 [Compound of formula I],Human Residuals at 60 min,[1],86.3%
same,Rat Residuals at 60 min,[2],90.9%
same,Mouse Residuals at 60 min,[3],73.9%
same,T/C,[4],29.8%
same,TGI,[4],70.2%
same,Tumor volume (x ± S),[4],600.39 ± 32.88 mm^3
same,Slope (caspase-3 activity),[5],0.59
